The subject of one assay is 9KB. Kind of assay: Cytotoxicity against human 9KB cells. It counts as functional, cell-based.
Assay [1] concerns P388. Kind of assay: In vivo antitumor activity against mouse P388 cells at 10 mg/kg. It counts as functional.
Assay [2] has as its system Lewis lung carcinoma cell line. Briefly: In vivo antitumor activity against mouse LLC at 1.25 mg/kg. Type of assay: functional.
In a further assay the test system is CA-755. Briefly: In vivo antitumor activity against mouse CA-755 cells at 100 mg/kg. Type of assay: functional.
In the next assay the test system is L1210. Kind of assay: Cytotoxicity against mouse L1210 cells. Type of assay: functional, cell-based.
The subject of a further assay is CCRF S-180. Briefly: Cytotoxicity against mouse S180 cells. Type of assay: functional, cell-based.
Assay [3] relates to P388. Kind of assay: In vivo antitumor activity against mouse P388 cells at 400 mg/kg. It counts as functional.

Activity calls are given as the source filed them. The calls are words filed in the database; no cut-off is given here.

As usually defined, the T/C is the result in the treated group divided by that in the control group, in per cent.

As to `COc1cc2oc(=O)ccc2cc1C1OC(=O)[C@]2(C)O[C@H]12` (some centres undefined), the result with 9KB was inactive. The figures for the T/C (in the assay with P388 [1]; in assay [2]) were 149% and 228%, respectively.
Consider `COc1cc2oc(=O)ccc2cc1C1C=C(C)C(=O)O1` (centres undefined), for which, in the assay on 9KB, the result was inactive.
For the compound `COc1cc2ccc(=O)oc2cc1O` [SCOPOLETIN], the outcome in the assay with 9KB, with L1210 and in the assay on CCRF S-180 was inactive. The T/C in the assay with CA-755 is 48%; in the assay on P388 [3], 130%.

The values are drawn from ChEMBL document CHEMBL1158644, “An investigation of the antitumor activity of Micromelum integerrimum (Rutaceae)” (1979).
